# Read-outs that look alike come from different tables or passages of the source.
# Tests used:
# analgesic response = conditions: cited from earlier work
# [1] = system: neurologic deficits secondary to cerebral ischemia; conditions: cited from earlier work
# [2] = system: acute focal cerebral ischemia; design: species or system cats; conditions: in vivo, ip
# [3] = system: neurologic deficits produced by unilateral carotid ligation; conditions: cited from earlier work
molecule,measurement,setting,value
Dynorphin: opioid peptide first isolated from pituitary glands; natural compound's full 17 amino acid sequence,analgesic potency,analgesic response; mice,little or no analgesic potency
same,effect on narcotic analgesia in tolerant animals,analgesic response; morphine-tolerant animals / tolerant hosts,potentiates the analgetic effect of both morphine and β-endorphin
same,effect on narcotic analgesia in naive animals,"analgesic response; naive animals, analgesic response to morphine and β-endorphin / narcotic analgesics","inhibits, or antagonizes, the analgesic response to both morphine and β-endorphin"
CN1CC[C@]23c4c5ccc(O)c4O[C@H]2[C@@H](O)C=C[C@H]3[C@H]1C5 [morphine],neurologic deficits secondary to cerebral ischemia,[1]; in vivo,exacerbates them
O=C1CC[C@@]2(O)[C@H]3Cc4ccc(O)c5c4[C@@]2(CCN3CC2CC2)[C@H]1O5 [naltrexone],prolonging survival (mortality as a function of time following the cerebral artery occlusions),[2],prolonged survival
"C=CCN1CC[C@]23c4c5ccc(O)c4O[C@H]2C(=O)CC[C@@]3(O)[C@H]1C5 [naloxone, 17 - allyl - 4,5a - epoxy - 3,14 - dihydroxymorphinan - 6 - one]",prolonging survival (mortality as a function of time following the cerebral artery occlusions),[2],prolonged survival
same,neurologic function and infarct size,"[3]; gerbils, temporary carotid occlusion, Levy et al. (1982)",did not produce improved neurologic function or alter infarct size
same,neurologic deficits produced by unilateral carotid ligation,"[3]; gerbils, intraperitoneal administration, Science 215:69-71 (1982)",can be reversed
same,survival and neurologic function,"[3]; several different models of stroke in gerbils, Holaday and D'Amato (1982)",no beneficial effect
same,neurologic deficits secondary to cerebral ischemia,"[1]; man, Lancet 2:272-275 (1981)",can reverse neurologic deficits

# Reference: patent publication EP0147194B1 (Hosobuchi, Yoshio, priority 1983, dated 1989)
